The results in this text go back to article PMC7482066, “Unstable Mechanisms of Resistance to Inhibitors of Escherichia coli Lipoprotein Signal Peptidase” (mBio, 2020).

In brackets after ≈: the same amount, converted by molar mass.

For one assay, the system named is Lpp. Put plainly: Lpp localization in peptidoglycan-associated and membrane fractions, Western blot. Particulars: CFT073, 2× MIC G0790. The class given is cell-based, E. coli. The method, then: Purification of peptidoglycan-associated proteins (PAPs) was performed according to published methods ([43], [67], [68]) with some modifications. Briefly, bacteria were harvested in mid-exponential phase for treatment and then subjected to PAP extraction by resuspending cell pellets from an optical density (OD; A600) of 10 in 6 ml of PAP extraction buffer containing 2% (wt/vol) SDS in 100 mM Tris-HCl (pH 8.0) with 100 mM NaCl, 10% glycerol, and cOmplete mini EDTA-free protease inhibitor cocktail (Sigma-Aldrich). After 60 min at room temperature (RT), the extraction was subjected to centrifugation at 100,000 × g for 60 min at 22°C, and the pellet, containing peptidoglycan-associated proteins, was washed once with the same PAP extraction buffer with centrifugation at 100,000 × g for 30 min and resuspended in 200 μl of PAP extraction buffer (referred to as the SDS-insoluble or PAP fraction). The supernatant containing the SDS-soluble fraction was aliquoted and frozen (referred to as the non-PAP fraction). Both fractions were treated with equal volumes of BugBuster buffer prior to the addition of sample buffer for Western immunoblotting as described above.
The inner and outer membrane fractionations of bacterial cells were performed according to published methods ([69]), with some modifications. […]
On the technique in general: Immunoblotting shows a protein as a band on a membrane.

The test system of a further assay is E. coli MG1655 ΔtolC. Put plainly: MIC. The class given is cell-based. The settings on record: E. coli MG1655 WT vs MG1655 ΔtolC. The method, then: (§1) MICs of compounds in each strain were determined in cation-adjusted Mueller-Hinton II (MHII) broth or MHII agar according to the Clinical and Laboratory Standards Institute protocol (CLSI 2006). To measure the effect of protein binding on activity, MIC assays were performed in the presence of 50% heat-inactivated human serum. The serum killing assay was performed as described previously ([43]). FOR assays and growth on plates containing G0790 were always performed on MHII agarose plates.

A further assay has as its system S. aureus USA300. Nature of the assay: MIC. In kind it is cell-based. Particulars: in words. The method, then:
as §1

The subject of the next assay is A. baumannii 17978. Put plainly: MIC. The class given is cell-based. The settings on record: A. baumannii ATCC 17978; in words. The method, then:
as §1

The test system of another assay is E. coli CFT073 Δlpp. Nature of the assay: MIC. The class given is cell-based. The protocol:
as §1

In a further assay the test system is E. coli CFT073 imp4213. Nature of the assay: MIC. In kind it is cell-based. Particulars: in words. The protocol:
as §1

Another assay deals with E. coli CFT073(pBADlspA). Put plainly: MIC. The settings on record: in words. The class given is cell-based. The method, then:
as §1

Usually MIC stands for the lowest concentration found to suppress growth. Regarding `CCCCCC[C@H]1OC(=O)CNC(=O)[C@H]([C@H](C)O)NC(=O)[C@H](CN)NC(=O)[C@H](C2CCCCC2)NC(=O)[C@H](CCC)N(C)C(=O)[C@@H]1C` [G0790], the “Lpp localization after treatment” value with Lpp is “loss of the peptidoglycan-associated form of Lpp in the outer membrane and its accumulation in the inner membrane”. For the same compound, in the assay with E. coli MG1655 ΔtolC, the “WT/tolC MIC shift” value was about 31 fold. The “Activity against S. aureus USA300” value in the assay with S. aureus USA300 is given as “no increased activity”. The “MIC against A. baumannii compared to GBM” value against A. baumannii 17978 is “modestly decreased MIC”. In addition, the MIC with E. coli CFT073 Δlpp (CFT073 Δlpp parent, resistant-strain study) was 19.5 µg/mL (≈ 29.2 µM). Also, the “Susceptibility of CFT073 Δlpp relative to parental WT” value with E. coli CFT073 Δlpp (in words) is on record as “more resistant to G0790 than the parental WT strain”. The “Activity against CFT073 imp4213 relative to GBM” value in the assay with E. coli CFT073 imp4213 is listed as “more active than GBM”. Further, the “Effect of LspA overexpression or lpp deletion on inhibition of WT CFT073 and CFT073 imp4213” value in the assay with E. coli CFT073(pBADlspA) is recorded as “decreased upon LspA overexpression or lpp deletion”.
